Results as given in the CheMixHub ionic liquid set.

Assay: xn = mol fraction of the nth substance listed

CCCC[n+]1ccn(C)c1.O=S(=O)([N-]S(=O)(=O)C(F)(F)F)C(F)(F)F + CCO
Details | electrical conductivity [S/m] | viscosity [mPa·s]
293 K, 100 kPa, x1 = 0.5784 | – | 20.7
293.3 K, 100 kPa, x1 = 0.4606 | – | 13.8
293.3 K, 100 kPa, x1 = 0.747 | – | 32.1
293.61 K, 100 kPa, x1 = 0.2688 | – | 6.37
293.61 K, 100 kPa, x1 = 1 | – | 61.8
293.91 K, 100 kPa, x1 = 0.2129 | – | 5.12
293.91 K, 100 kPa, x1 = 0.4606 | – | 13.5
293.91 K, 100 kPa, x1 = 0.6609 | – | 24.2
294.21 K, 100 kPa, x1 = 0.4215 | – | 12.22
294.21 K, 100 kPa, x1 = 0.6609 | – | 23.9
294.21 K, 100 kPa, x1 = 1 | – | 60.2
294.52 K, 100 kPa, x1 = 0.747 | – | 30.8
294.52 K, 100 kPa, x1 = 0.8264 | – | 38.5
294.52 K, 100 kPa, x1 = 1 | – | 59.4
294.82 K, 100 kPa, x1 = 0.4215 | – | 11.98
294.82 K, 100 kPa, x1 = 1 | – | 58.6
295.12 K, 100 kPa, x1 = 0.4215 | – | 11.87
295.12 K, 100 kPa, x1 = 0.747 | – | 30.1
295.42 K, 100 kPa, x1 = 0.2129 | – | 4.94
295.42 K, 100 kPa, x1 = 0.2688 | – | 6.11
295.42 K, 100 kPa, x1 = 0.4606 | – | 12.94
295.73 K, 100 kPa, x1 = 0.8264 | – | 36.7
296.64 K, 100 kPa, x1 = 0.2688 | – | 5.94
296.64 K, 100 kPa, x1 = 0.4606 | – | 12.48
296.64 K, 100 kPa, x1 = 1 | – | 54.1
296.94 K, 100 kPa, x1 = 0.4606 | – | 12.36
296.94 K, 100 kPa, x1 = 0.747 | – | 28.4
297.24 K, 100 kPa, x1 = 0.2688 | – | 5.85
297.24 K, 100 kPa, x1 = 0.4215 | – | 11.09
297.24 K, 100 kPa, x1 = 0.5784 | – | 18.17
297.24 K, 100 kPa, x1 = 0.747 | – | 28.1
297.55 K, 100 kPa, x1 = 0.8264 | – | 34.1
297.85 K, 100 kPa, x1 = 1 | – | 51.4
298 K, 100 kPa, x1 = 0.02 | 0.415 | –
298 K, 100 kPa, x1 = 0.03 | 0.5634 | –
298 K, 100 kPa, x1 = 0.05 | – | 1.663
298 K, 100 kPa, x1 = 0.06 | 0.8844 | –
298 K, 100 kPa, x1 = 0.07 | 0.958 | –
298 K, 100 kPa, x1 = 0.0999 | – | 2.413
298 K, 100 kPa, x1 = 0.1 | 1.118 | –
298 K, 100 kPa, x1 = 0.1999 | – | 4.331
298 K, 100 kPa, x1 = 0.2 | 1.28 | –
298 K, 100 kPa, x1 = 0.2993 | – | 6.629
298 K, 100 kPa, x1 = 0.3 | 1.216 | –
298 K, 100 kPa, x1 = 0.397 | – | 9.56
298 K, 100 kPa, x1 = 0.4 | 1.09 | –
298 K, 100 kPa, x1 = 0.4836 | – | 12.74
298 K, 100 kPa, x1 = 0.5 | 0.9534 | –
298 K, 100 kPa, x1 = 0.6 | 0.8239 | –
298 K, 100 kPa, x1 = 0.6978 | – | 23.61
298 K, 100 kPa, x1 = 0.7 | 0.6839 | –
298 K, 100 kPa, x1 = 0.8 | 0.575 | –
298 K, 100 kPa, x1 = 0.8001 | – | 30.86
298 K, 100 kPa, x1 = 0.8987 | – | 38.32
298 K, 100 kPa, x1 = 0.9 | 0.4819 | –
298 K, 100 kPa, x1 = 1 | – | 49.7
298.15 K, 100 kPa, x1 = 0.2129 | – | 4.64
298.15 K, 100 kPa, x1 = 0.2688 | – | 5.73
298.15 K, 101 kPa, x2 = 0.1174 | – | 38.5
298.45 K, 100 kPa, x1 = 0.6609 | – | 21
298.45 K, 100 kPa, x1 = 0.747 | – | 27
298.76 K, 100 kPa, x1 = 0.4215 | – | 10.58
298.76 K, 100 kPa, x1 = 0.8264 | – | 32.6
299.06 K, 100 kPa, x1 = 0.2129 | – | 4.55
299.06 K, 100 kPa, x1 = 0.5784 | – | 17.18
299.06 K, 100 kPa, x1 = 0.6609 | – | 20.6
299.67 K, 100 kPa, x1 = 0.4606 | – | 11.41
299.97 K, 100 kPa, x1 = 0.2129 | – | 4.45
299.97 K, 100 kPa, x1 = 0.5784 | – | 16.72
300.27 K, 100 kPa, x1 = 0.2129 | – | 4.42
300.27 K, 100 kPa, x1 = 0.4215 | – | 10.11
300.27 K, 100 kPa, x1 = 0.747 | – | 25.4
300.27 K, 100 kPa, x1 = 0.8264 | – | 30.7
300.58 K, 100 kPa, x1 = 0.4215 | – | 10.02
300.88 K, 100 kPa, x1 = 0.2688 | – | 5.37
300.88 K, 100 kPa, x1 = 0.4215 | – | 9.92
301.18 K, 100 kPa, x1 = 0.2688 | – | 5.34
301.48 K, 100 kPa, x1 = 0.2129 | – | 4.3
302.7 K, 100 kPa, x1 = 0.2129 | – | 4.18
302.7 K, 100 kPa, x1 = 0.2688 | – | 5.15
302.7 K, 100 kPa, x1 = 0.747 | – | 23.5
302.7 K, 100 kPa, x1 = 0.8264 | – | 28.1
303 K, 100 kPa, x1 = 0.4606 | – | 10.38
303 K, 100 kPa, x1 = 0.747 | – | 23.2
303.3 K, 100 kPa, x1 = 0.2688 | – | 5.08
303.91 K, 100 kPa, x1 = 0.8264 | – | 26.8
304.52 K, 100 kPa, x1 = 0.4606 | – | 9.95
304.52 K, 100 kPa, x1 = 0.5784 | – | 14.59
304.52 K, 100 kPa, x1 = 1 | – | 39.3
304.82 K, 100 kPa, x1 = 0.2688 | – | 4.9
304.82 K, 100 kPa, x1 = 0.4215 | – | 8.85
304.82 K, 100 kPa, x1 = 0.747 | – | 21.9
